# Experimental data published in patent US11896843B2, “Photodynamic therapy devices, systems and methods” (NATIONAL UNIVERSITY OF SINGAPORE, priority 2018, dated 2024).
# What was measured:
# ROS production [1] = test: ROS production in vitro under direct LED illumination of other photosensitizers; conditions: compared with Ce6
# Text: The system can be adapted for use with other photosensitizers.
# MB49 cells [2] = test: Cellular ROS production (Image-iT live Green ROS sensor fluorescence); format: cell-based, murine
# Experimental: (§1) Using Ce6-incubated murine bladder cancer cells, ROS production was further validated against red laser irradiation, the current clinical standard, in two configurations: (i) cells directly exposed to the radio-frequency/laser source, and (ii) cells placed under thick (3 cm) porcine tissue, simulating light delivery to deep tissue regions.
# (§2) FIGS. 18a to 18d illustrate test configurations for investigating ROS production. FIG. 18a illustrates a test configuration in which laser light is directly incident on the MB49 cells and FIG. 18 illustrates a test configuration in which the laser light travels through 3 cm of tissue. The laser illumination was carried out with the following intensity 37.5 mW/cm^2, 4 J/cm^2. FIG. 18c illustrates a test configuration in which a wirelessly powered implantable device is powered without intervening tissue. For this configuration near-field (NF) wireless powering was used. FIG. 18d illustrates a test configuration in which a wirelessly powered implantable device is powered without though 3 cm of tissue. For this configuration mid-field (MF) wireless powering was used.
# FIGS. 21a to 21g show florescence images of treated cells and control cells. FIGS. 21a and 21b show cells treated following incubation with Ce6 and illuminated with respectively, the direct laser configuration and, the though tissue laser configuration. FIGS. 21c and 21d show cells treated following incubation with Ce6 and illuminated with respectively, the near field (direct) wireless configuration and, the though tissue (mid field) wireless configuration. FIGS. 21e to 21g show control scenarios. […] The results were obtained from a fluorogenic, cell-permeable ROS sensor (Image-iT live Green ROS).
# In all cases, significant cell death resulted from oxidative stress.
# ROS production [3] = test: ROS production by Ce6 illuminated with wireless LED mesh device (405 nm or 660 nm); conditions: UV/violet (405 nm) light versus red (660 nm) light
# Text: Depending on the absorption spectrum of the photosensitizer used and the size of the tumor, the devices can be customized to emit a suitable light wavelength. The photosensitizer Ce6 (chlorin e6) has a strong absorption peak at 405 nm and a weaker one at 660 nm.
# FIG. 33A is a graph showing production of reactive oxygen species (ROS) by Ce6 when illuminated using a wireless illumination device emitting red (660 nm) light. FIG. 33B is a graph showing production of reactive oxygen species (ROS) by Ce6 when illuminated using a wireless illumination device emitting UV/violet (405 nm) light.
# C6 rat glioma cells = test: Cell kill in C6 rat glioma by UV light triggered PDT; format: cell-based; conditions: Ce6 PDT triggered by UV/violet light emitting devices, in vitro
# [4] = test system: solid tumor from MB49 bladder cancer cells; test: Histology after a single round of PDT, wireless device versus direct laser illumination; format: in vivo, mice
# Experimental: We compared the therapy to PDT by direct laser illumination, the current clinical standard, by histological examination of the tissue following a single round of treatment. […] The white lines labelled “T.B.” indicates a tissue boundary. Tumor-bearing mice were injected intratumorally with Ce6 and administered either the prior light dose using the wireless device or using a red laser (660 nm) collimated to a 5-mm diameter spot.
# ROS production [5] = test: ROS production in Ce6 solution around device implanted in adult pig model; conditions: 5 μM Ce6 solution; device 5.1 cm deep on liver surface, wirelessly powered through tissue; vs control solution with no Ce6
# Experimental: To illustrate that the implantable illumination devices could be powered through thick tissue at depths relevant to human scales, ROS production studies were conducted in an adult pig model.
# FIGS. 16a to 16c show computed tomography (CT) reconstructions of the radio-frequency transmitter and device implanted an adult pig model.
# The control (No Ce6) was a control solution with no Ce6 and the test solution was a solution containing 5 μM Ce6.
# MB49 cells [6] = test: Cell viability (MTS assay) of Ce6-incubated MB49 cells after irradiation; format: cell-based, murine; conditions: for cell kill (MTS assay): 20 min irradiation, 1.3 mW
# Experimental: as §1, §2
# Change in cell viability (MTS assay) following 20 min of irradiation in the above light delivery configurations is shown. The light dosing rate was 1.3 mW throughout. Groups include untreated cells, cells exposed to Ce6 alone, cells exposed to light alone and cells incubated with Ce6 and exposed to light from a laser or the device with or without intervening tissue section.
# [7] = test system: solid tumor from MB49 bladder cancer cells; test: Cancer PDT in C57 BL/6 mice bearing MB49 tumors, wireless light delivery; format: in vivo
# Experimental: Treatments were administered on Day 3 (T1) and Day 9 (T2) with a light dose of 1.3 mW over 30 min. Graphs show mean±s.d. (n=5 per group). The light dose was set to the same level (1.3 mW, 30 min) as used in the in vitro experiments. Devices were implanted in the interstitial space around a solid tumor grown to 4-6 mm diameter from MB49 bladder cancer cells subcutaneously injected into the hind region. After a recovery period, PDT was performed by intratumoral injection of Ce6 followed 4 hours later by wireless delivery of the light dose. […] Control groups were left untreated; received Ce6 injections only, received sham devices only, or given light doses using functional devices without Ce6 injection. […] Monitoring of tumor volume ended 13 days after first treatment, beyond which tumors in the majority of the mice from control groups either reached ethical size limits or were ulcerated. […] Tumor volumes cleared by PDT at the prescribed light dose are consistent with light transport calculations and measurements.
# MB49 cells [8] = test: Apoptosis index (TUNEL assay) in MB49 cells; format: cell-based, murine
# Experimental: as §2
# Cell death could be attributed to apoptosis, a widely accepted mechanism for PDT-mediated cytotoxicity. Apoptosis index (TUNEL assay) including positive and negative controls from the assay are shown.
# [9] = intratumoral Ce6 + red laser (660 nm), 5-mm spot
# [10] = intratumoral Ce6 + wireless device light dose
molecule,measurement,setting,value
[Zn+2].c1ccc2c(c1)-c1nc-2nc2[n-]c(nc3nc([n-]c4nc(n1)-c1ccccc1-4)-c1ccccc1-3)c1ccccc21 [zinc phthalocyanine],levels of ROS in vitro (normalized fluorescence),ROS production [1],comparable levels of ROS
Chlorin e6 [Ce6],ROS-induced fluorescence signal,"MB49 cells [2]; Ce6 + laser illumination, beam obstructed with thick tissue",insignificant ROS-induced fluorescence
same,ROS-induced fluorescence signal,"MB49 cells [2]; Ce6 + laser illumination, direct irradiation",effective only under direct irradiation
same,ROS-induced fluorescence signal,"MB49 cells [2]; Ce6 + wireless illumination, close proximity to radio-frequency source",increased signal
same,ROS-induced fluorescence signal,"MB49 cells [2]; Ce6 + wireless illumination, through thick tissue",increased signal
same,ROS production,MB49 cells [2]; Ce6 exposure alone (no light),did not result in significant ROS production
same,ROS yield,ROS production [3],ROS yield is higher
same,cell death,C6 rat glioma cells,about 80%
same,apoptosis in explanted tumor tissues (TUNEL staining),[4]; [9],comparable apoptosis
same,damage in tissues adjacent to the tumor (TUNEL staining),[4]; [9],did not show significant damage
same,apoptosis in explanted tumor tissues (TUNEL staining),[4]; [10],comparable apoptosis
same,damage in tissues adjacent to the tumor (TUNEL staining),[4]; [10],did not show significant damage
same,ROS production in Ce6 solution,ROS production [5],significant ROS production
same,change in cell viability (MTS assay),"MB49 cells [6]; Ce6 + laser illumination obstructed by thick (3 cm) tissue, P=0.178",did not result in a significant difference in cell viability
same,change in cell viability (MTS assay),"MB49 cells [6]; Ce6 + laser illumination, direct",effective at reducing cell viability
same,cell kill (MTS assay),"MB49 cells [6]; Ce6 + wireless light delivery through thick (3 cm) tissue (mid-field), P=0.0039",~80%
same,cell kill (MTS assay),"MB49 cells [6]; Ce6 + wireless light delivery, direct (near-field), P=0.0027",~80%
same,body weight over the treatment period,[7]; across all groups of mice incl. Ce6 + wireless light,did not show appreciable weight loss
same,tumor volume as a function of time,"[7]; intratumoral Ce6, wireless light dose 1.3 mW 30 min 4 hours later, two treatments, monitored to 13 days after first treatment, vs control groups","suppression, and in some cases complete regression, of tumors"
same,apoptotic cells in resected tumors (TUNEL staining),[7]; treatment group (Ce6 + wireless light) compared to control groups,significantly greater population of apoptotic cells
same,apoptosis index (TUNEL assay),"MB49 cells [8]; Ce6 + laser, direct",high apoptosis
same,apoptosis index (TUNEL assay),"MB49 cells [8]; Ce6 + laser, through 3 cm tissue",low and comparable to the untreated control scenario
same,apoptosis index (TUNEL assay),"MB49 cells [8]; Ce6 + wireless device, direct (near-field)",high apoptosis
same,apoptosis index (TUNEL assay),"MB49 cells [8]; Ce6 + wireless device, through 3 cm tissue (mid-field)",high apoptosis
